Activity data for seven compounds are collected here from ChEMBL document CHEMBL1671712, “Emergence of resistance among USA300 methicillin-resistant Staphylococcus aureus isolates causing invasive disease in the United States” (2010).

For assay [1], the system named is Staphylococcus aureus. As to the kind of experiment: Antimicrobial activity against Staphylococcus aureus USA300 isolate harboring pSK41 plasmid assessed resistant isolates. It counts as functional.
Assay [2] has as its system Staphylococcus aureus. The assay can be described thus: Antimicrobial activity against Staphylococcus aureus USA300 isolate harboring pSK41 plasmid expressing tetK gene assessed resistant isolates. It counts as functional.
For assay [3], the system named is Staphylococcus aureus. As to the kind of experiment: Antimicrobial activity against Staphylococcus aureus USA300 isolate harboring pSK41 plasmid expressing aac'-aph'''' gene assessed resistant isolates. It counts as functional, organism-based.
Assay [4] relates to Staphylococcus aureus. The assay can be described thus: Antimicrobial activity against Staphylococcus aureus USA300 isolate harboring pSK41 plasmid expressing ermC gene assessed resistant isolates. It counts as functional.

`Cc1onc(-c2ccccc2)c1C(=O)N[C@@H]1C(=O)N2[C@@H]1SC(C)(C)[C@@H]2C(=O)O` [OXACILLIN]: the Activity in assay [1] was found to be 100%. The compound `C[C@H]1COc2c(N3CCN(C)CC3)c(F)cc3c(=O)c(C(=O)O)cn1c23.C[C@H]1COc2c(N3CCN(C)CC3)c(F)cc3c(=O)c(C(=O)O)cn1c23.O` [LEVOFLOXACIN] came in with an Activity in assay [1] of 45%. For `CN(C)[C@@H]1C(O)=C(C(N)=O)C(=O)[C@@]2(O)C(O)=C3C(=O)c4c(O)cccc4[C@@](C)(O)[C@H]3C[C@@H]12` [TETRACYCLINE], the Activity in assay [2] stood at 8.4%. In assay [1], `CC[C@H]1OC(=O)[C@H](C)[C@@H](O[C@H]2C[C@@](C)(OC)[C@@H](O)[C@H](C)O2)[C@H](C)[C@@H](O[C@@H]2O[C@H](C)C[C@H](N(C)C)[C@H]2O)[C@](C)(O)C[C@@H](C)C(=O)[C@H](C)[C@@H](O)[C@]1(C)O` [ERYTHROMYCIN] returned an Activity of 85%. Compound `CC1(C)S[C@@H]2[C@H](NC(=O)Cc3ccccc3)C(=O)N2[C@H]1C(=O)O` [PENICILLIN G] came in with an Activity in assay [1] of 100%.

In assay [3], GENTAMICIN came in with an Activity of 1%. The compound `CCC[C@@H]1C[C@@H](C(=O)N[C@@H]([C@H]2O[C@H](SC)[C@H](O)[C@@H](O)[C@H]2O)[C@H](C)Cl)N(C)C1` [CLINDAMYCIN] gave an Activity in assay [4] of 6.2%.
